Patent US20110135739A1, “Oral Formulations of a Hedgehog Pathway Inhibitor” (priority 2009, published 2011)

Columns and labels:
[1] = Early dissolution experiments / dissolution attempted in various aqueous media; assay type: physicochemical
Source text: Gel formation is problematic from a formulation standpoint because it can result, for example, in irregular release of IPI-926 in vivo. Low rates of dissolution, and subsequent gel formation, persist even when small particle sizes (e.g., less than 150 micrometers) of IPI-926 are employed.
Without wishing to be bound to any particular theory, it was hypothesized that IPI-926 formed the solid agglomerate upon hydration. Accordingly, direct blend formulations were investigated.

[2] = test system: human cell lines derived from patients with pancreatic cancer, medulloblastoma, lung cancer, multiple myeloma, acute lymphocytic leukemia, myelodysplatic …; details: described in WO 2008083252 and WO 2008083248; cited from earlier work
[3] = test system: preclinical in vivo models, such as medulloblastoma, small cell lung cancer, non-small cell lung cancer, skin cancer, head and neck cancer, and ovarian cancer; details: a number of preclinical in vivo models; cited from earlier work
Hedgehog pathway = details: after single administration; cited from earlier work

CC1=C2C[C@H]3[C@@H](CC[C@@H]4C[C@H](NS(C)(=O)=O)CC[C@@]43C)[C@@H]2CC[C@@]2(C1)O[C@@H]1C[C@H](C)CN[C@H]1[C@H]2C.Cl [IPI-926]
behaviour when dissolution is attempted [1]: gel, rather than dissolve
in vitro growth of human cell lines [2]: inhibit in vitro growth
tumor growth inhibition [3]: tumor growth inhibition
Hedgehog pathway inhibition in stromal cells (Hedgehog pathway): rapid and sustained Hedgehog pathway inhibition
